In ChEMBL document CHEMBL5321272 (J Med Chem, 2023):
The source made the active and inactive calls. The rule behind the calls is not given here.

Key:
MV4-11 = test: cells; conditions: Homo sapiens, MV4-11, 72 h
Description: Antiproliferative activity against human MV4-11 cells assessed as reduction in cell viability incubated for 72 hrs by CellTiter 96 Aqueous One Solution Cell Proliferation Assay

[1] = target: Receptor-type tyrosine-protein kinase FLT3 (Homo sapiens, UniProt P36888, D835Y)
Description: Inhibition of FLT3 D835Y mutant (unknown origin) using peptide substrate TK-S and ATP as substrate incubated for 1 hr by HTRF assay

[2] = target: T1, Serine/threonine-protein kinase Chk1 (Homo sapiens, UniProt O14757)
T1 sequence (O14757 whole entry): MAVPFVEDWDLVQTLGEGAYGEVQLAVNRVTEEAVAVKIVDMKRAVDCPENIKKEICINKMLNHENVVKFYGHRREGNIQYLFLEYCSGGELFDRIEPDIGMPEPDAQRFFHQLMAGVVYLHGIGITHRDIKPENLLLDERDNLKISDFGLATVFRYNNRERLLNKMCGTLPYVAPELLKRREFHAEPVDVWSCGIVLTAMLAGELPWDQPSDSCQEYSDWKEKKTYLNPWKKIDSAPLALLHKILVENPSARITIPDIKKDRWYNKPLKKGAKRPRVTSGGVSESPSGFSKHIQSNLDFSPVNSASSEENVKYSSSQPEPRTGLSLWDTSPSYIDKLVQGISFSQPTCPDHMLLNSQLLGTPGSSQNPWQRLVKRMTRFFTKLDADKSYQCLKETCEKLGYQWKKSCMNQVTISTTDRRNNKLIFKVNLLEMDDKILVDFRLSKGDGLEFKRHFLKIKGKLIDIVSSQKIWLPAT
Description: Inhibition of CHK1 (unknown origin) using peptide substrate S1 and ATP as substrate incubated for 1 hr by HTRF assay

hERG (KCNH2) = hERG (KCNH2) (Homo sapiens, UniProt Q12809); test: Inhibition of hERG expressed in HEK293 cells at 20 uM by whole cell patch clamp analysis; assay type: toxicity, cell-based; conditions: HEK293 cells expressing hERG
Sequence of hERG (KCNH2) (Q12809 whole entry): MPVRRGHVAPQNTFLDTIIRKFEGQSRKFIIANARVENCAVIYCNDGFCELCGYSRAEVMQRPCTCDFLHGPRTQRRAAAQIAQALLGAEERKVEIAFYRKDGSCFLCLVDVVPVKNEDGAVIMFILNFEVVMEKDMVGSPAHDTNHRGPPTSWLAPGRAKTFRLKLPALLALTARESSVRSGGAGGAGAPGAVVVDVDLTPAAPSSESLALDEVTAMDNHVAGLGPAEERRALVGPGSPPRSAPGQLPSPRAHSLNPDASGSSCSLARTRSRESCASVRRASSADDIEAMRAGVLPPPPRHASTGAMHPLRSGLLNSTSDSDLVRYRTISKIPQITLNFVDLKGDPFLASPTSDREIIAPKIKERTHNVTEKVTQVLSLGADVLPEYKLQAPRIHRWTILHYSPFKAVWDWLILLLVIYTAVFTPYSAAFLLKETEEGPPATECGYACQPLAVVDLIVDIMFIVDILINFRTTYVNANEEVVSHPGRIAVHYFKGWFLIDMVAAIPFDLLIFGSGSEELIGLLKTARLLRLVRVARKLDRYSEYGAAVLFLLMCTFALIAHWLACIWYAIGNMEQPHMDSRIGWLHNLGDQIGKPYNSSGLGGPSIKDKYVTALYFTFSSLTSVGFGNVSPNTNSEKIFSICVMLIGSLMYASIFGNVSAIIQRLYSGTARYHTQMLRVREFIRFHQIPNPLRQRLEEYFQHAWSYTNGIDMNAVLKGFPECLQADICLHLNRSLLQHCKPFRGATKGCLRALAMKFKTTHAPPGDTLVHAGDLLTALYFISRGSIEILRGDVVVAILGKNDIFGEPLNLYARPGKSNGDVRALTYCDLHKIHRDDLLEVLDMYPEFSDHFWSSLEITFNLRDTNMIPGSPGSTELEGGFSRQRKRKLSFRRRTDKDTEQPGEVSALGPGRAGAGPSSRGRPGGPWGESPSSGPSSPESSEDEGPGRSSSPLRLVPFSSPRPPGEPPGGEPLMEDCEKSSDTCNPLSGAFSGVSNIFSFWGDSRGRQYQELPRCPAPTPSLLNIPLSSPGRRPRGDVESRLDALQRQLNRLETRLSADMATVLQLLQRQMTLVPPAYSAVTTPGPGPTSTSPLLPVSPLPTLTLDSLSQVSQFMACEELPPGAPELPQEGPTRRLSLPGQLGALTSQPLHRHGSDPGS

[3] = Selectivity ratio of IC50 for inhibition of c-KIT (unknown origin) to IC50 for inhibition of FLT3 D835Y mutant (unknown origin)
BaF3 [4] = test: Antiproliferative activity against mouse BaF3 cells harboring FLT3 D835F mutant assessed as reduction in cell viability incubated for 72 hrs by CellTiter 96 Aqueous One Solution Cell Proliferation Assay; assay type: functional, cell-based
[5] = target: Mast/stem cell growth factor receptor Kit (Homo sapiens, UniProt P10721); test: Inhibition of c-KIT (unknown origin) using peptide substrate TK-S and ATP as substrate incubated for 1 hr by HTRF assay; assay type: toxicity
Sequence of Mast/stem cell growth factor receptor Kit (P10721 whole entry): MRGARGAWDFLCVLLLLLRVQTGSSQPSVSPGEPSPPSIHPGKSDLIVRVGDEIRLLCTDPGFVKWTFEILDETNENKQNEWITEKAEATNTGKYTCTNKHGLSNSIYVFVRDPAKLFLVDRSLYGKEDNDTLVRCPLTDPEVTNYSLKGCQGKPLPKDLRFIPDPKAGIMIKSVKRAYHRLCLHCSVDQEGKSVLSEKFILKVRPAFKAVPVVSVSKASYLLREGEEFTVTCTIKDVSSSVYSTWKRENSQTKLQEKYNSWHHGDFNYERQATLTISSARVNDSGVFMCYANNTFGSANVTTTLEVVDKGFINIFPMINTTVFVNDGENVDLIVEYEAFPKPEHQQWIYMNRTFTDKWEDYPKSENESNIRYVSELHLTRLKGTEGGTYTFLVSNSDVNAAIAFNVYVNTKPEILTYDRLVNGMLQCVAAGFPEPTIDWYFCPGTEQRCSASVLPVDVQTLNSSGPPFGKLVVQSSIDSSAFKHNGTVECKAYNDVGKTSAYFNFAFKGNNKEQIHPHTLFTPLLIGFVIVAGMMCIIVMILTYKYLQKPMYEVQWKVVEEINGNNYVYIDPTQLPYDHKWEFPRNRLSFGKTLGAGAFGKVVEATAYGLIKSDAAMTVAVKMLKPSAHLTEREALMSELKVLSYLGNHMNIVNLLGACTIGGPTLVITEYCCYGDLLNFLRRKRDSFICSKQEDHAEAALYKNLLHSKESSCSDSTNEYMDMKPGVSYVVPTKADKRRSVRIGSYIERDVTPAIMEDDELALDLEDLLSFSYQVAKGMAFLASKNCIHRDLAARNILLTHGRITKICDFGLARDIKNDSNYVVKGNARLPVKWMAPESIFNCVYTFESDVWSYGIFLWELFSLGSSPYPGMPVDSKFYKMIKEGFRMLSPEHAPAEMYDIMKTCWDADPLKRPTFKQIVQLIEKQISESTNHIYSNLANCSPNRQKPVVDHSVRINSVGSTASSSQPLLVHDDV

BaF3 [6] = test: Antiproliferative activity against mouse BaF3 cells harboring FLT3 F691L mutant assessed as reduction in cell viability incubated for 72 hrs by CellTiter 96 Aqueous One Solution Cell Proliferation Assay; assay type: functional, cell-based
BaF3 [7] = test: Antiproliferative activity against mouse BaF3 cells harboring FLT3 D835V mutant assessed as reduction in cell viability incubated for 72 hrs by CellTiter 96 Aqueous One Solution Cell Proliferation Assay; assay type: functional, cell-based

| SMILES | IC50 (MV4-11) [nM] | IC50 [1] [nM] | IC50 [2] [nM] | inhibition at 20 µM (hERG (KCNH2)) [%] | Ratio IC50 [3] | Activity (BaF3 [4]) | IC50 [5] [µM] | Activity (BaF3 [6]) | Activity (BaF3 [7]) |
| --- | --- | --- | --- | --- | --- | --- | --- | --- | --- |
| CC(C)(O)CC(=O)N1CCc2cc(Nc3ncc(C(F)(F)F)c(N[C@H]4CC[C@@H](NS(C)(=O)=O)CC4)n3)ccc2C1 | 6.21 | 3.8 | 827 | – | – | – | – | – | – |
| Cn1ncc2cc(Nc3ncc(C(F)(F)F)c(N[C@H]4CC[C@@H](N)CC4)n3)ccc2c1=O | 1.36 | 4.22 | 58.5 | 81.9 | – | – | – | – | – |
| CC(=O)N1CCc2cc(Nc3ncc(C(F)(F)F)c(N[C@H]4CC[C@@H](N)CC4)n3)ccc21 | 2.07 | 0.98 | 10.7 | – | 4870 | Active | 4.78 | Active | Active |
| CC(=O)N1CCc2ccc(Nc3ncc(C(F)(F)F)c(N[C@H]4CC[C@@H](N)CC4)n3)cc2C1 | 0.35 | 1.24 | 7.61 | 43.4 | 3720 | Active | 4.62 | Active | Active |
| CC(=O)N[C@H]1CC[C@@H](Nc2nc(Nc3ccc4c(c3)CCN(C(=O)CC(C)(C)O)C4)ncc2C(F)(F)F)CC1 | 20.7 | 18.9 | 1090 | – | – | – | – | – | – |
| CC(C)(O)CC(=O)N1CCc2cc(Nc3ncc(C(F)(F)F)c(NC[C@H]4CCCNC4)n3)ccc2C1 | 2.71 | 12 | 86.5 | – | – | – | – | – | – |
| CC(C)(O)CC(=O)N1CCc2cc(Nc3ncc(C(F)(F)F)c(NCCCNS(C)(=O)=O)n3)ccc2C1 | – | 18.1 | 1950 | – | – | – | – | – | – |
| C[C@H](O)C(=O)N1CCc2cc(Nc3ncc(C(F)(F)F)c(N[C@H]4CC[C@@H](N)CC4)n3)ccc2C1 | 0.28 | 0.92 | 5.1 | 13.6 | 766 | – | 0.704 | – | – |
| CC(C)(O)Cn1ncc2cc(Nc3ncc(C(F)(F)F)c(N[C@H]4CC[C@@H](N)CC4)n3)ccc2c1=O | 1.1 | 2.69 | 66.9 | 48.1 | – | – | – | – | – |
| N#Cc1cnc(Nc2cc(NC[C@H]3CNCCO3)c(C(F)(F)F)cn2)cn1 [SRA-737] | 245 | – | – | – | – | – | – | – | – |
| CC(C)(O)CC(=O)N1CCc2cc(Nc3ncc(C(F)(F)F)c(NCCCN)n3)ccc2C1 | 2.38 | 3.79 | 34.5 | 11.2 | – | – | – | – | – |
| CC(C)(O)Cn1ccc2cc(Nc3ncc(C(F)(F)F)c(N[C@H]4CC[C@@H](N)CC4)n3)ccc2c1=O | 0.62 | 3.91 | 124 | 22.1 | – | – | – | – | – |
| CC(C)(O)CC(=O)N1CCc2cc(Nc3ncc(C(F)(F)F)c(N[C@@H]4CCCNC4)n3)ccc2C1 | 2.26 | 4.03 | 35.2 | 35 | – | – | – | – | – |
| CC(C)(O)CC(=O)N1CCc2cc(Nc3ncc(C(F)(F)F)c(N[C@H]4CCCNC4)n3)ccc2C1 | – | 311 | 952 | – | – | – | – | – | – |
| CC(C)(O)Cn1cnc2cc(Nc3ncc(C(F)(F)F)c(N[C@H]4CC[C@@H](N)CC4)n3)ccc2c1=O | 1.59 | 4.56 | 206 | 6.82 | – | – | – | – | – |
| N[C@H]1CC[C@@H](Nc2nc(Nc3ccc4c(c3)CN(C(=O)CO)C4)ncc2C(F)(F)F)CC1 | 0.14 | 1.06 | 7.6 | – | 1870 | Active | 1.99 | Active | Active |
| CCn1ccc2cc(Nc3ncc(C(F)(F)F)c(N[C@H]4CC[C@@H](N)CC4)n3)ccc2c1=O | 0.99 | 1.59 | 26.7 | – | – | – | – | – | – |
| CN1CCc2cc(Nc3ncc(C(F)(F)F)c(N[C@H]4CC[C@@H](N)CC4)n3)ccc2C1=O | 1.2 | 1.15 | 11.7 | 40.9 | 4150 | Active | 4.77 | Active | Active |
| CC(C)(O)CC(=O)N1CCc2cc(Nc3ncc(C(F)(F)F)c(NC[C@@H]4CCCNC4)n3)ccc2C1 | 8.26 | 24.1 | 336 | – | – | – | – | – | – |
| CC(C)(O)CC(=O)N1CCc2cc(Nc3ncc(C(F)(F)F)c(N[C@H]4CC[C@@H](N)CC4)n3)ccc21 | 2.21 | 2.88 | 19 | – | 1760 | Active | 5.06 | Active | Active |
| CC(C)(O)Cn1ccc2cc(Nc3ncc(C(F)(F)F)c(N[C@H]4C[C@H]5CC[C@@H](C4)N5)n3)ccc2c1=O | > 5000 | 488 | 2020 | – | – | – | – | – | – |
